In the NIST ThermoML archive (doi:10.1021/je400282h):
± gives the expanded uncertainty stated by the source.

Details: Liquid, Ebulliometric method (Recirculating still)

| vapor or sublimation pressure (373.15 K) [kPa] | vapor or sublimation pressure (391.03 K) [kPa] | Compound |
| --- | --- | --- |
| 101.32 ± 0.46 | – | O [water] |
| – | 101.32 ± 0.46 | CC(=O)O [acetic acid] |
